Experimental data published in patent US9464042B2, “Biguanide derivative, preparation method thereof, and pharmaceutical composition containing same as an active ingredient” (IMMUNOMET THERAPEUTICS INC., priority 2010, dated 2016).
Where a name gives a salt, the structure may show the parent alone.

Columns and labels:
AMPK = AMPK activation (AMPKα immunoassay kit, phospho-Thr172) in MCF7 cells; assay type: cell-based, human; design: AMPK Activation 50 uM (degree of phosphorylated AMPKα Thr172): unit not given here; details: 24 h; for AMPK Activation 50 uM (degree of phosphorylated AMPKα Thr172): 50 uM compound
Protocol: The MCF7 cells were put on a 6-well plate and incubated in a DMEM medium containing 10% fetal bovine serum in an incubator to which 5% CO2 was supplied to have a cell count of approximately 5×10^5. 50 μM of the derivatives synthesized in the examples were treated to the each culture medium, and the cells were incubated for 24 hours. Subsequently, the cells were lysed by a method presented in the operation manual of the AMPKα immunoassay kit, and 20 μg of cell lysates were yielded through protein assay.

HCT116 cells = experiment: Inhibition of cancer cell proliferation (MTT, GIC50); assay type: cell-based; details: Homo sapiens, HCT-116, 48 h incubation
Protocol: HCT116 cells derived from human colorectal cancer were used, and a cancer cell proliferation inhibition effect of a biguanide derivative was confirmed by measuring a concentration value (cell growth inhibition concentration, GIC50) at which cell growth was inhibited 50% using a 3-(4,5-dimethylthiazol-2-yl)-2,5-diphenyltetrazolium bromide (MTT) reagent.
First, the HCT116 cells were put on a 96-well plate and incubated for 24 hours to each have cell count of approximately 5000 in a DMEM medium containing 10% fetal bovine serum. Subsequently, to obtain the GIC50 value of each compound, 100 μM (or 200 μM), 25 μM, 6.25 μM, 1.56 μM or 0.39 μM of the compound was treated to each culture medium and then incubated for 48 hours. To confirm living cells after treatment with the compound, MTT was added to each culture medium and further incubated for 3 hours. Generated formazane crystal was dissolved using dimethyl sulfoxide (DMSO), and absorbance of the solution was measured at 560 nm. After the 48-hour incubation, a ratio of […] synthesized in the examples was indicated as cell viability (%) according to each administered concentration. A cell viability curve was plotted using the cell viability (%) and the calculated concentration value (GIC50) of the compound, at which 50% of the growth was inhibited, to confirm an effect on the inhibition of cancer cell proliferation.

[1] = 50 uM compound vs 0 (no compound)

Structure (SMILES)	IC50 (HCT116 cells) [µM]	melting point [°C]	AMPK Activation Fold (AMPK; [1])	AMPK Activation 50 uM (degree of phosphorylated AMPKα Thr172) (AMPK)	AMPK Activation Fold (AMPK; 1 mM metformin vs 0 (no compound))	AMPK Activation (@ 1 mM) (degree of phosphorylated AMPKα Thr172) (AMPK; 1 mM metformin)
CCCC/N=C(/NC(=N)N)NC1CCCCCC1.Cl [Example 1, N4-butyl-N5-cycloheptyl biguanide hydrochloride]	> 200	–	4.0	21.1	–	–
CCC/N=C(\NC)NC(=N)N.Cl [Example 2, N4-propyl-N5-methyl biguanide hydrochloride]	> 100	170 to 171	1.0	6.5	–	–
CCCCCC/N=C(\NC)NC(=N)N.Cl [Example 3, N4-hexyl-N5-methyl biguanide hydrochloride]	> 100	–	5.2	35.5	–	–
C=CC/N=C(\NC)NC(=N)N.Cl [Example 4, N4-allyl-N5-methyl biguanide hydrochloride]	> 100	156 to 157	0.8	5.3	–	–
CN/C(=N\Cc1ccccc1)NC(=N)N.Cl [Example 5, N4-benzyl-N5-methyl biguanide hydrochloride]	> 100	113 to 115	1.6	10.8	–	–
CN/C(=N\CCc1ccccc1)NC(=N)N.Cl [Example 6, N4-(phenetyl)-N5-methyl biguanide hydrochloride]	> 100	126 to 127	4.9	33.1	–	–
CCCCCC/N=C(/NC(=N)N)NC(C)CC.Cl (stereo not shown) [Example 7, N4-hexyl-N5-(butane-2-yl)biguanide hydrochloride]	> 100	175 to 176	5.8	39.5	–	–
CCC(C)N/C(=N\CCc1ccccc1)NC(=N)N.Cl (stereo not shown) [Example 8, N4-(phenetyl)-N5-(butyl-2-yl)biguanide hydrochloride]	> 100	181 to 183	2.7	18.4	–	–
CCCC/N=C(\NCCCC)NC(=N)N.Cl [Example 9, N4,N5-dibutyl biguanide hydrochloride]	> 100	112 to 114	3.8	25.6	–	–
CCCCCC/N=C(\NCCCC)NC(=N)N.Cl [Example 10, N4-hexyl-N5-butyl biguanide hydrochloride]	30.3	–	7.2	38.1	–	–
CCCCN/C(=N\C(C)C)NC(=N)N.Cl [Example 11, N4-isopropyl-N5-butyl biguanide hydrochloride]	> 100	173 to 175	0.6	4.2	–	–
CCCCN/C(=N\C(C)CC)NC(=N)N.Cl (stereo not shown) [Example 12, N4-(butane-2-yl)-N5-butyl biguanide hydrochloride]	> 200	193 to 194	1.5	8.1	–	–
C=CC/N=C(\NCCCC)NC(=N)N.Cl [Example 13, N4-allyl-N5-butyl biguanide hydrochloride]	> 200	–	3.9	20.5	–	–
CCCCN/C(=N\C1CCCC1)NC(=N)N.Cl [Example 14, N4-cyclopentyl-N5-butyl biguanide hydrochloride]	> 100	190 to 191	3.4	23.2	–	–
CCCCN/C(=N\Cc1ccco1)NC(=N)N.Cl [Example 15, N4-(furane-2-yl)methyl-N5-butyl biguanide hydrochloride]	> 200	–	3.7	19.4	–	–
CCCCN/C(=N\C12CC3CC(CC(C3)C1)C2)NC(=N)N.Cl [Example 16, N4-adamantyl-N5-butyl biguanide hydrochloride]	34.7	193 to 194	6.7	35.3	–	–
CCCCN/C(=N\c1ccc(Br)cc1)NC(=N)N.Cl [Example 17, N4-(4-bromo)phenyl-N5-butyl biguanide hydrochloride]	126	195 to 196	3.9	26.3	–	–
CCCCN/C(=N\Cc1ccccc1)NC(=N)N.Cl [Example 18, N4-benzyl-N5-butyl biguanide hydrochloride]	> 200	–	1.8	9.6	–	–
CN(C)C(=N)N=C(N)N [Metformin HCl, reference compound]	–	–	–	–	3.2	21.5

The next lines start with results.

IC50 (HCT116 cells) [µM]	melting point [°C]	Structure (SMILES)	AMPK Activation Fold (AMPK; [1])	AMPK Activation 50 uM (degree of phosphorylated AMPKα Thr172) (AMPK)	AMPK Activation Fold (AMPK; 1 mM metformin vs 0 (no compound))	AMPK Activation (@ 1 mM) (degree of phosphorylated AMPKα Thr172) (AMPK; 1 mM metformin)
> 100	147 to 148	CCCCN/C(=N\Cc1ccccc1Cl)NC(=N)N.Cl [Example 19, N4-(2-chloro)benzyl-N5-butyl biguanide hydrochloride]	2.8	19.1	–	–
54.1	–	CCCCN/C(=N\Cc1cccc(Cl)c1)NC(=N)N.Cl [Example 20, N4-(3-chloro)benzyl-N5-butyl biguanide hydrochloride]	1.5	7.2	–	–
13.5	113 to 115	CCCCN/C(=N\Cc1ccc(Cl)cc1)NC(=N)N.Cl [Example 21, N4-(4-chloro)benzyl-N5-butyl biguanide hydrochloride]	–	–	–	–
> 100	–	CCCCN/C(=N\Cc1ccc(OC)cc1)NC(=N)N.Cl [Example 22, N4-(4-methoxyl)benzyl-N5-butyl biguanide hydrochloride]	4.4	29.9	–	–
35.3	–	CCCCN/C(=N\Cc1ccc(Cl)c(Cl)c1)NC(=N)N.Cl [Example 23, N4-(3,4-dichloro)benzyl-N5-butyl biguanide hydrochloride]	7.8	19.5	–	–
26.5	–	CCCCN/C(=N\CCc1ccc(Cl)cc1)NC(=N)N.Cl [Example 25, N4-(4-chloro)phenethyl)-N5-butyl biguanide hydrochloride]	–	–	–	–
–	123 to 124	CCCCN/C(=N\CCc1ccc(Cl)cc1)NC(=N)N.Cl [Example 25]	6.7	16.7	–	–
> 200	–	C=CC/N=C(\NCc1ccccc1)NC(=N)N.Cl [Example 29, N4-allyl-N5-benzyl biguanide hydrochloride]	1.0	5.5	–	–
> 100	–	Cl.N=C(N)N/C(=N/C1CCCCCC1)NCc1ccccc1 [Example 31, N4-cycloheptyl-N5-benzyl biguanide hydrochloride]	6.6	44.6	–	–
6.5	178 to 179	CCCC/N=C(\NCCc1ccccc1)NC(=N)N.Cl [Example 33, N4-butyl-N5-(phenethyl)biguanide hydrochloride]	–	–	–	–
–	232 to 233	Cl.N=C(N)N/C(=N/c1ccccc1)NCCc1ccccc1 [Example 35, N4-phenyl-N5-(phenethyl)biguanide hydrochloride]	1.3	9.0	–	–
9.3	115 to 116	Cl.N=C(N)N/C(=N/c1ccc(Cl)cc1)NCCc1ccccc1 [Example 36, N4-(4-chloro)phenyl-N5-(phenethyl)biguanide hydrochloride]	–	–	–	–
> 100	–	Cl.N=C(N)N/C(=N/Cc1ccco1)NCCc1ccccc1 [Example 38, N4-(furan-2-yl)methyl-N5-(phenethyl)biguanide hydrochloride]	3.2	22.0	–	–
99.1	–	COc1ccc(C/N=C(/NC(=N)N)N(C)Cc2cccc3ccccc23)cc1.Cl [Example 46, N4-(4-methoxyl)benzyl-N5,N5-(1-naphthylmethyl)-(methyl) biguanide hydrochloride]	3.7	19.5	–	–
